Results on eleven compounds are retold here after patent publication US10683297B2 (Sunshine Lake Pharma Co., Ltd., priority 2017, dated 2020).

One data set concerns the target T1, JAK1 (h) (Homo sapiens, UniProt P23458).
T1 construct: purchased Millipore UK Ltd (assays performed there as a service)
Kind of data set: JAK1 (h) kinase assay. It is filed as biochemical. Particulars: [γ-33P-ATP] 10 μM or KM values; 40 minutes at room temperature. On the procedure: The above assay procedure can be used to determine the IC50 for inhibition and/or the inhibition constant, Ki. […] The IC50 value is estimated by preparing a 10 point curve using a ½ log dilution series (for example, a typical curve may be prepared using the following compound concentrations: 3 μM, 1 μM, 0.3 μM, 0.1 μM, 0.03 μM, 0.01 μM, 0.003 μM, 0.001 μM, 0.0003 μM and 0 μM).
JAK1 (h) is incubated with 20 mM Tris/HCl pH 7.5, 0.2 mM EDTA, 500 μM […], 10 mM MgAcetate and [γ-^33P-ATP] […] The reaction is initiated by the addition of the MgATP mix. After incubation for 40 minutes at room temperature, the reaction is stopped by the addition of 3% phosphoric acid solution. 10 μL of the reaction is then spotted onto a P30 filtermat and washed three times for 5 minutes in 75 mM phosphoric acid and once in methanol prior to drying and scintillation counting.
The kinase assays described herein were performed at Millipore UK Ltd, Dundee Technology Park, Dundee DD2 1SW, UK.

A short description of data set [1]: Compound stability in human liver microsomes. It is filed as in vitro ADME. Particulars: for half-life at 5 μM: human liver microsomes 0.5 mg protein/mL, compound 5 μM, NADPH 1.0 mM, pH 7.4, 37° C., read-out: Human T1/2; for CLint scaled at 5 μM: liver microsomes, pH 7.4, in vivo CLint extrapolated from human liver microsome incubation. On the procedure: (§1) The LC/MS/MS system used in the analysis consists of an Agilent 1200 Series vacuum degasser, binary pump, well-plate autosampler, thermostatted column compartment, the Agilent G6430 Triple Quadrupole Mass Spectrometer with an electrosprayionization (ESI) source. Quantitative analysis was carried out using MRM mode. The parameters for MRM transitions are in the Table A.
(§2) An Agilent XDB-C18, 2.1×30 mm, 3.5 μM column was used for the analysis. 5 μL of the samples were injected. Analysis condition: The mobile phase was 0.1% formic acid in water (A) and 0.1% formic acid in methanol (B). The flow rate was 0.4 mL/min. And the gradient of Mobile phase was in the Table B.
(§3) Alternatively, an Agilent 6330 series LC/MS/MS spectrometer equipped with G1312A binary pumps, a G1367A autosampler and a G1314C UV detector were used in the analysis. An ESI source was used on the LC/MS/MS spectrometer. The analysis was done in positive ion mode as appropriate and the MRM transition for each analyte was optimized using standard solution. A Capcell MP-C18 100×4.6 mm I.D., 5 uM column (Phenomenex, Torrance, Calif., USA) was used during the analysis. The mobile phase was 5 mM ammonia acetate, 0.1% MeOH in water (A): 5 mM ammonia acetate, 0.1% MeOH in acetonitrile (B) (70/30, v/v). The flow rate was 0.6 mL/min. Column was maintained at ambient temperature. 20 μL of the samples were injected.
(§4) Human or rat liver microsomes incubations were conducted in duplicate in polypropylene tubes. The typical incubation mixtures consisted of human or rat liver microsomes (0.5 mg protein/mL), compounds of interest (5 μM) and NADPH (1.0 mM) in a total volume of 200 μL potassium phosphate buffer (PBS, 100 mM, pH 7.4). Compounds were dissolved in DMSO and diluted with PBS such that the final concentration of DMSO was 0.05%. The enzymatic reactions were commenced with the addition of […] after a 3-min preincubation and incubated in a water bath open to the air at 37° C. Reactions were terminated at various time points (0, 5, 10, 15, 30, 60 min) by adding equal volume of ice-cold acetonitrile. The samples were stored at […] until LC/MS/MS assays.
(§5) The concentrations of compounds in the incubation mixtures of human or rat liver microsomes were determined by a LC/MS/MS method. The ranges of the linearity in the concentration range were determined for each tested compounds.
(§6) A parallel incubation was performed using denatured microsomes as the negative control, and reactions were terminated at various time points (0, 15, 60 min) after incubation at 37° C.
(§7) Dextromethorphan (70 μM) was selected as the positive control, and reactions were terminated at various time points (0, 5, 10, 15, 30, 60 min) after incubation at 37° C. Both positive and negative control samples were included in each assay to ensure the integrity of the microsomal incubation system.
(§8) The concentrations of compounds in human or rat liver microsome incubations were plotted as a percentage of the relevant zero time point control for each reaction. The in vivo CLint were extrapolated (ref.: Naritomi, Y.; Terashita, S.; Kimura, S.; Suzuki, A.; Kagayama, A.; and Sugiyama, Y.; Prediction of human hepatic clearance from in vivo animal experiments and in vitro metabolic studies with liver microsomes from animals and humans. Drug Metab. Dispos., 2001, 29: 1316-1324).

Data set [2] can be described thus: Compound stability in rat liver microsomes. It is filed as in vitro ADME. The following applies: for CLint scaled at 5 μM: liver microsomes, pH 7.4, in vivo CLint extrapolated from rat liver microsome incubation; for half-life at 5 μM: rat liver microsomes 0.5 mg protein/mL, compound 5 μM, NADPH 1.0 mM, pH 7.4, 37° C., read-out: Rat T1/2. The protocol: as §1, §2, §3, §4, §5, §6, §7, §8

Data set [3] is described as follows: Pharmacokinetics after intravenous and oral administration in rats. It is filed as in vivo. The protocol:
as §1, §2, §3
The compounds disclosed herein are assessed in pharmacokinetic studies in mice, rats, dogs or monkeys. The compounds are administered as a water solution, 2% HPMC+1% TWEEN®80 in water solution, 5% DMSO+5% solutol in saline, 4% MC suspension or capsule. For the intravenous administration, the animals are generally given at about 0.5, 0.6, 1 or 2 mg/kg dose. For the oral (p.o.) dosing, mice and rats are generally given 5 or 10 mg/kg dose, and dogs and monkeys are generally given 10 mg/kg dose. The blood samples (0.3 mL) are drawn at 0.25, 0.5, 1.0, 2.0, 3.0, 4.0, 6.0, 8.0, 12 and 24 h time points or 0.083, 0.25, 0.5, 1.0, 2.0, 4.0, 6.0, 8.0 and 24 h time points and centrifuged at 3,000 or 4000 rpm for 2 to 10 min. The plasma solutions are collected, and stored at […] until analyzed by LC/MS/MS as described above.

The mark [4] stands for this setting: rat, plasma, iv dosing, dose 1 mg/kg (Ex. 9: 0.6, Ex. 18: 0.5, Ex. 50: 0.96 mg/kg).

T1 sequence (P23458 whole entry): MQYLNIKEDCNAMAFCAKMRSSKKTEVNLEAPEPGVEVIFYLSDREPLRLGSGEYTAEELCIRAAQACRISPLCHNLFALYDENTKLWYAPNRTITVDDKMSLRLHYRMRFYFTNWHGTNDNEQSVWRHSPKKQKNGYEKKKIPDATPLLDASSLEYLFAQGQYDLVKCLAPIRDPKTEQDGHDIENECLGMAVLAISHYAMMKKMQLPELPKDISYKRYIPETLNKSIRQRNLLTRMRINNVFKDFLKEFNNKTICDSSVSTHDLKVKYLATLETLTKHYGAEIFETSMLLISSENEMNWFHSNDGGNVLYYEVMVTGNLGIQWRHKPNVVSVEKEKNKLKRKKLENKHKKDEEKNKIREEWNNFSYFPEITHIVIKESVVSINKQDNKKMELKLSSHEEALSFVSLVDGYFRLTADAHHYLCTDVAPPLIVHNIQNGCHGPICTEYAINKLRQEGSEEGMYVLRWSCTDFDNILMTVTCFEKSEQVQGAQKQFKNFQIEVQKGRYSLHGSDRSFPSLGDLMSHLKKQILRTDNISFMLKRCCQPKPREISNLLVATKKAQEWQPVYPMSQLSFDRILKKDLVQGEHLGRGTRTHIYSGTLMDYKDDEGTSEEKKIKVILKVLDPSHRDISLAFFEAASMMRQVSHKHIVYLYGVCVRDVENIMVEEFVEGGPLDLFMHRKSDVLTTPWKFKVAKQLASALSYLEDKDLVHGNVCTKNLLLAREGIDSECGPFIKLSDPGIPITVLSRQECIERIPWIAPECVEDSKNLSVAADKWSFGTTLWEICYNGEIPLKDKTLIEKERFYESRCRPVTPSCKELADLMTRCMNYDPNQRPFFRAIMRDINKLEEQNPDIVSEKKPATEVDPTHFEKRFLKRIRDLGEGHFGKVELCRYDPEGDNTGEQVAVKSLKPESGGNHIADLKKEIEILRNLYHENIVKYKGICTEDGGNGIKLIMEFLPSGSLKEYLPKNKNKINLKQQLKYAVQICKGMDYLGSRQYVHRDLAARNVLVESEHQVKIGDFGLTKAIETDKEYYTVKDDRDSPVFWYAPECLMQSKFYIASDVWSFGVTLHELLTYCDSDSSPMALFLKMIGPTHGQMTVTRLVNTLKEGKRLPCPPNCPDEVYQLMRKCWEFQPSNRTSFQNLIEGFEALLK

For the compound `Cc1cnc2ccc(Nc3ncc(Cl)c(NC4CCN(c5ccc(C#N)nn5)CC4)n3)cn12` [Example 13, 6-(4-((5-chloro-2-((3-methylimidazo[1,2-a]pyridin-6-yl)amino)pyrimidin-4-yl)amino)piperidin-1-yl)pyridazine-3-carbonitrile], the half-maximal inhibitory concentration (IC50) against JAK1 (h) worked out at 0.5 nM. Also, in data set [1], the half-life at 5 μM worked out at 21.8 min and the intrinsic metabolic clearance (CLint scaled) at 5 μM was 79.8 mL/min/kg. In addition, in data set [2], the CLint scaled at 5 μM is 23.3 mL/min/kg and the half-life at 5 μM was 107 min.
For `N#Cc1ccc(N2CCC(Nc3nc(Nc4ccn5c(C6CC6)cnc5c4)ncc3Cl)CC2)nn1` [Example 14, 6-(4-((5-chloro-2-((3-cyclopropylimidazo[1,2-a]pyridin-7-yl)amino)pyrimidin-4-yl)amino)piperidin-1-yl)pyridazine-3-carbonitrile] the same measures were 3 nM, 26.1 min, 66.7 mL/min/kg, 232 mL/min/kg and 10.7 min.
As to `Cc1nc2cc(Nc3ncc(Cl)c(NC4CCN(c5ccc(C#N)nn5)CC4)n3)ccn2c1C` [Example 16, 6-(4-((5-chloro-2-((2,3-dimethylimidazo[1,2-a]pyridin-7-yl)amino)pyrimidin-4-yl)amino)piperidin-1-yl)pyridazine-3-carbonitrile], the half-maximal inhibitory concentration (IC50) on JAK1 (h) turned out to be 0.3 nM.
For the compound `Cc1nnc2cc(Nc3ncc(Cl)c(NC4CCN(c5ccc(C#N)nn5)CC4)n3)ccn12` [Example 20, 6-(4-((5-chloro-2-((3-methyl-[1,2,4]triazolo[4,3-a]pyridin-7-yl)amino)pyrimidin-4-yl)amino)piperidin-1-yl)pyridazine-3-carbonitrile], on JAK1 (h), inhibition was half-maximal at 0.5 nM (IC50). Besides, the half-life at 5 μM in data set [1] was 153 min; in data set [2], 82.7 min. Besides, the CLint scaled at 5 μM in data set [1] is 11.3 mL/min/kg; in data set [2], 30 mL/min/kg.
As to `Cc1cnc2cc(Nc3ncc(Cl)c(NC4CCN(c5ccc(C#N)cn5)CC4)n3)cnn12` [Example 21, 6-(4-((5-chloro-2-((3-methylimidazo[1,2-b]pyridazin-7-yl)amino)pyrimidin-4-yl)amino)piperidin-1-yl)nicotinonitrile], on JAK1 (h), the half-inhibitory concentration (IC50) was under 0.3 nM. Also, the “Clearance (CL) after iv dosing” value in data set [3] (iv dosing, dose 1 mg/kg (Ex. 9: 0.6, Ex. 18: 0.5, Ex. 50: 0.96 mg/kg)) was found to be 0.71 L/h/kg. Also, in data set [3] (setting [4]), the area under the curve AUC(0-t) came out at 1420 ng·h/mL and the half-life was 43.2 min. Further, the Vd in data set [3] (rat, plasma, iv dosing, dose 1 mg/kg (Ex. 9: 0.6, Ex. 18: 0.5, Ex. 50: 0.96 mg/kg), read-out: Vss) came out at 0.84 L/kg. Also, the bioavailability in data set [3] (rat, plasma, oral (generally 5 or 10 mg/kg) versus iv dosing, read-out: F (oral bioavailability)) is 37%.
Turning to `Cc1nnc2cc(Nc3ncc(Cl)c(NC4CCN(c5ccc(C#N)cn5)CC4)n3)cnn12` [Example 25, 6-(4-((5-chloro-2-((3-methyl-[1,2,4]triazolo[4,3-b]pyridazin-7-yl)amino)pyrimidin-4-yl)amino)piperidin-1-yl)nicotinonitrile], at JAK1 (h), 3 nM corresponded to half-maximal inhibition (IC50). For the same compound, in data set [1], the half-life at 5 μM was determined as 61 min and the intrinsic clearance (CLint scaled) at 5 μM is 28.5 mL/min/kg. In data set [2], the CLint scaled at 5 μM was 54.9 mL/min/kg and the half-life at 5 μM is 45.2 min.
On JAK1 (h), `CC(O)c1cnc2cc(Nc3ncc(Cl)c(NC4CCN(c5ccc(C#N)cn5)CC4)n3)ccn12` (centres unmarked) [Example 43, 6-(4-((5-chloro-2-((3-(1-hydroxyethyl)imidazo[1,2-a]pyridin-7-yl)amino)pyrimidin-4-yl)amino)piperidin-1-yl)nicotinonitrile] came in with an IC50 of under 0.3 nM. Besides, the results for the half-life at 5 μM in data set [1] and in data set [2] were 23.5 min and 43.2 min, respectively. In addition, the CLint scaled at 5 μM in data set [1] is 74.1 mL/min/kg; in data set [2] it was 57.5 mL/min/kg.
For `CC(C)(F)c1nc2cc(Nc3ncc(Cl)c(NC4CCN(c5ccc(C#N)cn5)CC4)n3)ccn2n1` [Example 59, 6-(4-((5-chloro-2-((2-(2-fluoropropan-2-yl)-[1,2,4]triazolo[1,5-a]pyridin-7-yl)amino)pyrimidin-4-yl)amino)piperidin-1-yl)nicotinonitrile] the same measures were 0.7 nM, 69.3 min, 28.6 min, 25.1 mL/min/kg and 86.8 mL/min/kg.
`N#Cc1ccc(N2CCC(Nc3nc(Nc4ccc5c(c4)ncn5CC4CC4)ncc3Cl)CC2)nn1` [Example 63, 6-(4-((5-chloro-2-((1-(cyclopropylmethyl)-1H-benzo[d]imidazol-5-yl)amino)pyrimidin-4-yl)amino)piperidin-1-yl)pyridazine-3-carbonitrile] yielded an IC50 on JAK1 (h) of 0.4 nM. This lies in the sub-nanomolar range.
For `CC(C)(O)Cn1cnc2cc(Nc3ncc(Cl)c(NC4CCN(c5ccc(C#N)cn5)CC4)n3)ccc21` [Example 64, 6-(4-((5-chloro-2-((1-(2-hydroxy-2-methylpropyl)-1H-benzo[d]imidazol-5-yl)amino)pyrimidin-4-yl)amino)piperidin-1-yl)nicotinonitrile], 0.5 nM corresponded to half-maximal inhibition at JAK1 (h) (IC50). Further, the half-life at 5 μM came out at 40.3 min in data set [1] and 10 min in data set [2]. The results for the intrinsic metabolic clearance (CLint scaled) at 5 μM in data set [1] and in data set [2] were 43.2 mL/min/kg and 249 mL/min/kg, respectively.
For the compound `CC(C)(O)c1nc2cc(Nc3ncc(Cl)c(NC4CCN(c5ccc(C#N)cn5)CC4F)n3)ccn2n1` (centres unmarked) [Example 89, 6-(4-((5-chloro-2-((2-(2-hydroxypropan-2-yl)-[1,2,4]triazolo[1,5-a]pyridin-7-yl)amino)pyrimidin-4-yl)amino)-3-fluoropiperidin-1-yl)nicotinonitrile], on JAK1 (h), the half-maximal inhibitory concentration (IC50) came to 2 nM.
